Measurements from article PMC11844072, “Novel 5,6-dichlorobenzimidazole derivatives as dual BRAFWT and BRAFV600E inhibitors: design, synthesis, anti-cancer activity and molecular dynamics simulations” (BMC Chemistry, 2025).

Key:
BRAFV600E = BRAFV600E (Homo sapiens, UniProt P15056, V600E); parameters: purchased BPS Biosciences 48688; details: cited from earlier work
PDGFR-β = tested on: PDGFR-β; parameters: method as in PMID 35636123; details: cited from earlier work
c-KIT = tested on: c-KIT; parameters: method as in PMID 35636123; details: cited from earlier work
BRAFWT = target: T1, BRAFWT (Homo sapiens, UniProt P15056); details: cited from earlier work
T1 construct: purchased BPS Biosciences 78316
T1 sequence (P15056 whole entry): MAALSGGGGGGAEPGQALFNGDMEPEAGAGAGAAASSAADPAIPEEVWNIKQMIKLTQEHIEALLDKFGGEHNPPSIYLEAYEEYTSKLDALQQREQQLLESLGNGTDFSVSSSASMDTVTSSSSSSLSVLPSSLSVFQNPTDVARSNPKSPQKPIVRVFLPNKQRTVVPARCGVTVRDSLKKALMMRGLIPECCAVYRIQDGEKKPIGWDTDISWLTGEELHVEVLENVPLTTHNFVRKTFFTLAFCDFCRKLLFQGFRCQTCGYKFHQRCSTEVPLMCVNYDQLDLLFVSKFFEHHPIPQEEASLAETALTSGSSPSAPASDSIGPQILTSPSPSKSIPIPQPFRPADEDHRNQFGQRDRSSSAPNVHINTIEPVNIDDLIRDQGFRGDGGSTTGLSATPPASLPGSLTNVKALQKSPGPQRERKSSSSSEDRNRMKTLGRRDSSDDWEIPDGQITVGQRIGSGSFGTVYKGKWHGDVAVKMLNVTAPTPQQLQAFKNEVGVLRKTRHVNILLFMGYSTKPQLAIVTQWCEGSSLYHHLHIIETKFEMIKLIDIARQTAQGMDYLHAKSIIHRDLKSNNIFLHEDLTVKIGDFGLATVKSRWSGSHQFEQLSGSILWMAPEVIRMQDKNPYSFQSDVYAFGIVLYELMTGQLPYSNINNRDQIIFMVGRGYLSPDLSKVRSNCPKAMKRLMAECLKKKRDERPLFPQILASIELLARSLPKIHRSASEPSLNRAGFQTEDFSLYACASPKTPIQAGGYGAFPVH

FLT-3 = tested on: FLT-3; parameters: method as in PMID 35636123; details: cited from earlier work
VEGFR-2 = VEGFR-2 (Homo sapiens, UniProt P35968); parameters: purchased; details: cited from earlier work
Sequence of VEGFR-2 (P35968 20-1356): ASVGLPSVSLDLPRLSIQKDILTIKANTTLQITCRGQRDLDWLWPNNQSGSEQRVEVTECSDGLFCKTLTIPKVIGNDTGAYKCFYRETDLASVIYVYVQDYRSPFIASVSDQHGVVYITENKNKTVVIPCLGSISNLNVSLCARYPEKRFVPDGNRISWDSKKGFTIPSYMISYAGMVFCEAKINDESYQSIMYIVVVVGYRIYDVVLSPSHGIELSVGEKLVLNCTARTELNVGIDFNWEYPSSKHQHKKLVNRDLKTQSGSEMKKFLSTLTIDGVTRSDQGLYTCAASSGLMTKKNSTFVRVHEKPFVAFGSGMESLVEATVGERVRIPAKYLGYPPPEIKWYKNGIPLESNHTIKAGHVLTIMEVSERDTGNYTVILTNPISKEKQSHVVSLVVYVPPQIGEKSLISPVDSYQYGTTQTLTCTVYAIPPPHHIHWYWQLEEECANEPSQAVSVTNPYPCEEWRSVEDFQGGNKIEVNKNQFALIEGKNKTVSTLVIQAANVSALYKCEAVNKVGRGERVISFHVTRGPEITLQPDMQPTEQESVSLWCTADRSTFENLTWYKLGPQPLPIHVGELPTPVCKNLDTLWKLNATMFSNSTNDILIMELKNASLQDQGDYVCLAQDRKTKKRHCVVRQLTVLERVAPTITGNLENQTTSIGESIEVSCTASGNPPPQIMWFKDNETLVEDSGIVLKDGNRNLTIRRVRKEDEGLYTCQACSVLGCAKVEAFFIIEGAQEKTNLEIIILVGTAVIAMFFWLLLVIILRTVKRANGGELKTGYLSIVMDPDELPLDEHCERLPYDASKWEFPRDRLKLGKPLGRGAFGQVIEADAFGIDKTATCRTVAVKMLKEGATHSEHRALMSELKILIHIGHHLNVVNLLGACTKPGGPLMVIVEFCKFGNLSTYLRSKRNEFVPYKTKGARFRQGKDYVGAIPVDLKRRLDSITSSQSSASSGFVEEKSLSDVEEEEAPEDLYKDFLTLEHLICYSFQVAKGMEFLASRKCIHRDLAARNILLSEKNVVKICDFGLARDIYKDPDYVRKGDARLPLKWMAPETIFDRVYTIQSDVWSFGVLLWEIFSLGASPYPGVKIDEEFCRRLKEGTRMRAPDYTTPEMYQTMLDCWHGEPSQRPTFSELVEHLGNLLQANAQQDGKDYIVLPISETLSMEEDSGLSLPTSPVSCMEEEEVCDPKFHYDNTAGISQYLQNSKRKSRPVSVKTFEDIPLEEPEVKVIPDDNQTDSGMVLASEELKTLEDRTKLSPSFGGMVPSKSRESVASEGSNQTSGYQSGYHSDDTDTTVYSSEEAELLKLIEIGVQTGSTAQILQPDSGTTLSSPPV

FGFR-1 = FGFR-1 (Homo sapiens, UniProt P11362); parameters: purchased; details: cited from earlier work
Sequence of FGFR-1 (P11362 22-822): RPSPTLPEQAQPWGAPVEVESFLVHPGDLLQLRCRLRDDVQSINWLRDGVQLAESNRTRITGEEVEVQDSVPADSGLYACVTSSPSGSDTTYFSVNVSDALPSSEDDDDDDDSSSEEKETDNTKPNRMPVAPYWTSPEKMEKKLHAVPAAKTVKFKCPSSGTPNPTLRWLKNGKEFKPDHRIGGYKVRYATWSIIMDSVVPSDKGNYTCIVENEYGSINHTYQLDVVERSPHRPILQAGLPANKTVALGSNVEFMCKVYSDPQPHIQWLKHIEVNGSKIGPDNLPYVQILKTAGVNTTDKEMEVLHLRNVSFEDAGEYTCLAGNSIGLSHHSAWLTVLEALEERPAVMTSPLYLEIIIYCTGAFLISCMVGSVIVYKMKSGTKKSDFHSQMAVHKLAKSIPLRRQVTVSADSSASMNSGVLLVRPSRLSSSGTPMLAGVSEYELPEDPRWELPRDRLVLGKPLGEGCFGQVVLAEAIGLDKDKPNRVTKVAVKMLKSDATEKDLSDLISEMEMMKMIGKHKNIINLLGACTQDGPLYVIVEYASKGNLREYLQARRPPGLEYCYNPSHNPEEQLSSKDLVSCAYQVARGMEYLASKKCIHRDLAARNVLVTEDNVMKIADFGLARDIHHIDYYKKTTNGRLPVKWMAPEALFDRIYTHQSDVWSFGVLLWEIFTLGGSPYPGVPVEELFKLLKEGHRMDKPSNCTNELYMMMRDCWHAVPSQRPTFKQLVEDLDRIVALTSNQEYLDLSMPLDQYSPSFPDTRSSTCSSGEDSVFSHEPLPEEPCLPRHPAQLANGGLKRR

HSF cell line = test: Cytotoxicity on HSF normal cell line (SRB assay); assay type: cell-based; details: HSF normal human skin fibroblast; mean of three ± SD
Protocol: The dichlorobenzimidazole derivative 10h was tested in Nawah scientific—Cairo—Egypt for its cytotoxic activity on HSF cell line as stated in the Additional file A [53, 54].
6. Analysis of 10h on HSF normal cell line
Human Skin Fibroblast (HSF) was obtained from Nawah Scientific Inc., (Mokatam, Cairo, Egypt). Cells were maintained in DMEM media supplemented with […] of streptomycin, 100 units/mL of penicillin and 10% of heat-inactivated fetal bovine serum in humidified, 5% (v/v) CO2atmosphere at 37 °C. Cell viability was assessed by SRB assay. Aliquots of 100 μL cell suspension (5x10^3 cells) were in 96-well plates and incubated in complete media for 24 h. Cells were treated with another aliquot of 100 μL media containing drugs at various concentrations.
After drug exposure, cells were fixed by replacing media with 150 μL of 10% TCA and incubated at 4 °C for 1 h. The TCA solution was removed, and the cells were washed 5 times with distilled water. Aliquots of 70 μL SRB solution (0.4% w/v) were added and incubated in a dark place at room temperature for 10 min. Plates were washed 3 times with 1% acetic acid and allowed to air-dry overnight. Then, 150 μL of TRIS (10 mM) was added to dissolve protein-bound SRB stain; the absorbance was measured at 540 nm using an Infinite F50 microplate reader (TECAN, Switzerland).
6.2. Dose response curve of 10h on HSF normal cell line
Figure 66. […]

HepG2 cell line = tested on: HepG2 cell line; parameters: method as in PMID 28505536, PMID 32053964; details: antiproliferative activity; cited from earlier work

Sequence of BRAFV600E (P15056 whole entry V600E): as the sequence (P15056 whole entry) above, with V600E counted along it

SMILES: Cc1ccc(-n2c(SCC(=O)Nc3ccc(-c4nc5ccccc5[nH]4)cc3)nc3ccccc3c2=O)cc1 [III]
- IC50 (BRAFV600E): 2470 nM
- IC50 (PDGFR-β): 30 nM
- IC50 (c-KIT): 120 nM
- IC50 (BRAFWT): 6740 nM
- IC50 (FLT-3): 130 nM

SMILES: O=C1Nc2ccc(Br)cc2/C1=N\NC(=O)c1ccc2[nH]c(-c3ccccc3)nc2c1 [IV]
- IC50 (VEGFR-2): 180 nM
- IC50 (BRAFV600E): 1520 nM
- IC50 (BRAFWT): 20 nM
- IC50 (FGFR-1): 1650 nM

SMILES: CNC(=O)c1cc(Oc2ccc(NC(=O)Nc3ccc(Cl)c(C(F)(F)F)c3)cc2)ccn1 [Sorafenib, reference compound]
- IC50 (HSF cell line): 2250 ± 140 nM

SMILES: CC(C)c1nc2ccccc2n1CC(=O)N/N=C/c1cccc(OCc2ccccc2)c1 [V]
- IC50 (HepG2 cell line): 1980 nM
